ChEMBL document CHEMBL5608253, “Discovery and Optimization of Aryl Piperidinone Ureas as Selective Formyl Peptide Receptor 2 Agonists” (ACS Med Chem Lett, 2024)

Tests used:
[1] = molecular target: T1, N-formyl peptide receptor 2 (Homo sapiens, UniProt P25090); test: Agonist activity at human FPR2 expressed in CHO cells assessed as forskolin -induced cAMP level incubated for 30 mins in presence of IBMX by HTRF HiRange cAMP assay; assay type: functional, cell-based
T1 sequence (P25090 whole entry): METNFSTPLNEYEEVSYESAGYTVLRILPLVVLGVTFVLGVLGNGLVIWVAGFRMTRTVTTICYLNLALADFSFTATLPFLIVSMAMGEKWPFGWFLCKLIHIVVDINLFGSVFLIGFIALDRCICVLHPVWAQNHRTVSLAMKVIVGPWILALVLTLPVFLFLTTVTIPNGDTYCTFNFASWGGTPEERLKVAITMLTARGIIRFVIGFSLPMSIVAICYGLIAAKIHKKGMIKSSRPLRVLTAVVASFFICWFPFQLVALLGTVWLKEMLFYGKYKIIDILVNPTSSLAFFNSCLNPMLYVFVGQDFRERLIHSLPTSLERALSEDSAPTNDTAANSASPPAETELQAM

[2] = Drug concentration in plasma of LPS-treated rat model at 10 mg/kg measured after 2 hrs; assay type: ADME, organism-based
[3] = molecular target: Cytochrome P450 2D6 (Homo sapiens, UniProt P10635); test: Inhibition of CYP2D6 (unknown origin); assay type: ADME
[4] = Protein binding in human plasma assessed as free fraction; assay type: ADME, cell-free
[5] = tested on: Rattus norvegicus; test: Anti-inflammatory activity in LPS-treated rat model assessed as increase in IL-10 level at 10 mg/kg measured after 2 hrs relative to control; assay type: functional
[6] = Cmax in rat at 3 mg/kg, po; assay type: ADME, organism-based; details: in vivo
[7] = Permeability across apical to basal side in human Caco-2 cells; assay type: ADME, cell-based; details: read-out: permeability
[8] = molecular target: T2, Cytochrome P450 1A2 (Homo sapiens, UniProt P05177); test: Inhibition of CYP1A2 (unknown origin); assay type: ADME
T2 sequence (P05177 whole entry): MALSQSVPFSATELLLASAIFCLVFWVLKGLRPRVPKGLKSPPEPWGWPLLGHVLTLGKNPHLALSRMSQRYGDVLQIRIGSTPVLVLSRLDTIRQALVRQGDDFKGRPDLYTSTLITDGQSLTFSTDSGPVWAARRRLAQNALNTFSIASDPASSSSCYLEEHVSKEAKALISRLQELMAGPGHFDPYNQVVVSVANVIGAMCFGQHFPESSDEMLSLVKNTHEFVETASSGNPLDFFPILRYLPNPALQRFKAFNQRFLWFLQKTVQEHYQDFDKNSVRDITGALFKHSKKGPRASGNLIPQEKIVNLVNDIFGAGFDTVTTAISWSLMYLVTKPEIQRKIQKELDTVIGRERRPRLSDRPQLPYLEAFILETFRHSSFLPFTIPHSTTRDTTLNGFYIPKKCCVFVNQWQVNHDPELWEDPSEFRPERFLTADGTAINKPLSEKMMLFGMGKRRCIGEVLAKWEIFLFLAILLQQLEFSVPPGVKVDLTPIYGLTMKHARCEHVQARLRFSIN

[9] = Protein binding in rat plasma assessed as free fraction; assay type: ADME, cell-free
[10] = molecular target: Cytochrome P450 2C19 (Homo sapiens, UniProt P33261); test: Inhibition of CYP2C19 (unknown origin); assay type: ADME
[11] = molecular target: Cytochrome P450 2C9 (Homo sapiens, UniProt P11712); test: Inhibition of CYP2C9 (unknown origin); assay type: ADME
[12] = Permeability across basal to apical side in human Caco-2 cells; assay type: ADME, cell-based; details: read-out: permeability
[13] = AUC (total) in rat at 3 mg/kg, po; assay type: ADME, organism-based; details: in vivo
[14] = molecular target: Cytochrome P450 3A4 (Homo sapiens, UniProt P08684); test: Inhibition of CYP3A4 (unknown origin); assay type: ADME
[15] = Agonist activity at rat FPR2 by cAMP assay

Sequence of Cytochrome P450 2C9 (P11712 whole entry): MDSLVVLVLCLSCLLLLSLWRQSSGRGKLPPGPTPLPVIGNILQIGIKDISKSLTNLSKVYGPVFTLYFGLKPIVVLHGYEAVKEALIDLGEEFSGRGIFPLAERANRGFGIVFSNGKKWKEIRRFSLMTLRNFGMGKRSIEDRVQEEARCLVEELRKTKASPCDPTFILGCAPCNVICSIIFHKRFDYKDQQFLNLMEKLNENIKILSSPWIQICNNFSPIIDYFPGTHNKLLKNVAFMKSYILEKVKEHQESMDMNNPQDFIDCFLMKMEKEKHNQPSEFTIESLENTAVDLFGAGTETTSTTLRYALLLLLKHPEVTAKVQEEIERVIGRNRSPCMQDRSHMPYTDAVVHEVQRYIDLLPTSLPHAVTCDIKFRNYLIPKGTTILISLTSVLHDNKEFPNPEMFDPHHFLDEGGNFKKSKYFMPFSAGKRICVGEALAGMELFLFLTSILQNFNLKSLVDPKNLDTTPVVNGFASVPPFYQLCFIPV
Sequence of Cytochrome P450 2C19 (P33261 whole entry): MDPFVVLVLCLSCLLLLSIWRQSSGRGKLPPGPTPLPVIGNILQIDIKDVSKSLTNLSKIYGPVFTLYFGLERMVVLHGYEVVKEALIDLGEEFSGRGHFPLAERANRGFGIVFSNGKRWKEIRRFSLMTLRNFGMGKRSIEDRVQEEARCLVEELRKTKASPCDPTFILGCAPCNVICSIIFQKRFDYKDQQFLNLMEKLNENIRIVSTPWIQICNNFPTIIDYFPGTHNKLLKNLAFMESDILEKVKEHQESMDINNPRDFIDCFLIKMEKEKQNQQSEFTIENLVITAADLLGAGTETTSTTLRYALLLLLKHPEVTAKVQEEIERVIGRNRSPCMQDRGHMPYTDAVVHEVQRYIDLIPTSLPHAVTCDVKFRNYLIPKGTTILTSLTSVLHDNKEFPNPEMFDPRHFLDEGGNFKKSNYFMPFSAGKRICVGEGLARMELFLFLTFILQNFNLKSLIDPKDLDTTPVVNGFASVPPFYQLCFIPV
Sequence of Cytochrome P450 2D6 (P10635 whole entry): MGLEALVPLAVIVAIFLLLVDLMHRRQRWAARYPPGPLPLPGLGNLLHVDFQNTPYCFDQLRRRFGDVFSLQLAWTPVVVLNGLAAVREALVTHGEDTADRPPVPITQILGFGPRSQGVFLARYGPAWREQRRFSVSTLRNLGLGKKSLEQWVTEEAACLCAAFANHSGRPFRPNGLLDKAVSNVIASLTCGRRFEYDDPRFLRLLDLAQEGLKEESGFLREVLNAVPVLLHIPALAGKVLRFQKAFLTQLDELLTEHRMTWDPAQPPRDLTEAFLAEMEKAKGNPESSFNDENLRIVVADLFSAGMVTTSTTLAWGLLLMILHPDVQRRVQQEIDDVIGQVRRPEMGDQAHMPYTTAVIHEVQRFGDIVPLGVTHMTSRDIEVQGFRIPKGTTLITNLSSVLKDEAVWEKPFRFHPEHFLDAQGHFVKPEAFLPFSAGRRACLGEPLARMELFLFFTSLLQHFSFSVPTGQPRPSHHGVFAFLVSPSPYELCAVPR
Sequence of Cytochrome P450 3A4 (P08684 whole entry): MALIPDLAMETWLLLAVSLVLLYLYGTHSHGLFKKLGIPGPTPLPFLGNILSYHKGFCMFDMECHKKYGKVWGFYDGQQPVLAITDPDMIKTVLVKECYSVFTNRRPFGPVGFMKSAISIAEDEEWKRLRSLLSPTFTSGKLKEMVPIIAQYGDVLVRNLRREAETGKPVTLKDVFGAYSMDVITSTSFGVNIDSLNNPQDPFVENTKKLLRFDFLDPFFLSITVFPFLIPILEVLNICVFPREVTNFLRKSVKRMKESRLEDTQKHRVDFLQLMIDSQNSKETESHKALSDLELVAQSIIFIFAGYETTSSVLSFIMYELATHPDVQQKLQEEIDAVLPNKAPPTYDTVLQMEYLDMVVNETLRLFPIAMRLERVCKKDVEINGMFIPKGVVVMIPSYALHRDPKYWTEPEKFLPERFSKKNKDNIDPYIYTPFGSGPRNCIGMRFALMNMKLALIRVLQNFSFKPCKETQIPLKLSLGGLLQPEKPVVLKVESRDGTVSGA

Compound | EC50 [1] | concentration at 2 h [2] | INH [3] | fraction unbound [4] | Cmax [6] | Papp A→B [7] | INH [8] | fraction unbound [9] | INH [10] | INH [11] | Papp B→A [12] | AUC [13] | INH [14] | EC50 [15] | Activity [5]
CS(=N)(=O)c1ccccc1-c1ccc(N2CCC[C@@H](NC(=O)Nc3ccc(C(F)(F)F)cc3)C2=O)cc1 (stereo in doubt; 9) | 1.6 nM |  |  |  |  |  |  |  |  |  |  |  |  |  | 
COc1ccc(NC(=O)N[C@@H]2CCCN(c3ccc(-c4ccccc4NS(C)(=O)=O)cc3)C2=O)cc1 | 0.3 nM |  |  |  |  |  |  |  |  |  |  |  |  |  | 
CS(=O)(=O)Nc1ccccc1-c1ccc(N2CCC[C@@H](NC(=O)Nc3ccc(Cl)cc3)C2=O)cc1 | 0.15 nM | 490 nM | > 10 µM | 0.02 | 300 nM | < 1.5 ×10⁻⁶ cm/s | > 10 µM | 0.01 | > 10 µM | > 10 µM | 41.8 ×10⁻⁶ cm/s | 1.13 µM·h | > 10 µM | 0.4 nM | 140%
CS(=O)(=O)Nc1ccccc1-c1ccc(N2CCC[C@@H](NC(=O)Nc3ccc(C(F)(F)F)nc3)C2=O)cc1 | 10 nM |  |  |  |  |  |  |  |  |  |  |  |  |  | 
NC(=O)c1ccccc1-c1ccc(N2CCC[C@@H](NC(=O)Nc3ccc(C(F)(F)F)cc3)C2=O)cc1 | 2.8 nM |  |  |  |  |  |  |  |  |  |  |  |  |  | 
COc1cnc(NC(=O)N[C@@H]2CCCN(c3ccc(-c4ccccc4NS(C)(=O)=O)cc3)C2=O)c(F)c1 |  |  | > 10 µM | 0.12 | 830 nM | 11 ×10⁻⁶ cm/s | > 10 µM | 0.08 | > 10 µM | > 10 µM | 44 ×10⁻⁶ cm/s | 1.7 µM·h | > 10 µM |  | 
CS(=N)(=O)c1ccccc1-c1ccc(N2CCC[C@@H](NC(=O)Nc3ccc(C(F)(F)F)cc3)C2=O)cc1 (stereo in doubt; 10) | 9 nM |  |  |  |  |  |  |  |  |  |  |  |  |  | 

Continued, in another order:

EC50 [1] | concentration at 2 h [2] | INH [3] | fraction unbound [4] | Cmax [6] | Papp A→B [7] | INH [8] | fraction unbound [9] | INH [10] | INH [11] | Papp B→A [12] | AUC [13] | INH [14] | EC50 [15] | Compound | Activity [5]
0.6 nM |  |  |  |  |  |  |  |  |  |  |  |  |  | CS(=O)(=O)Nc1ccccc1-c1ccc(N2CCC[C@@H](NC(=O)Nc3ccc(C(F)(F)F)cc3F)C2=O)cc1 | 
4.5 nM |  |  |  |  |  |  |  |  |  |  |  |  |  | CS(=O)(=O)Nc1ccccc1-c1ccc(N2CCC[C@@H](NC(=O)Nc3ccc(C(F)(F)F)cn3)C2=O)cc1 | 
0.2 nM | 1700 nM | > 10 µM | 0.03 | 610 nM | 4.4 ×10⁻⁶ cm/s | > 10 µM | 0.03 | > 10 µM | > 10 µM | 29.1 ×10⁻⁶ cm/s | 2.7 µM·h | > 10 µM | 0.6 nM | CS(=O)(=O)Nc1ccccc1-c1ccc(N2CCC[C@@H](NC(=O)Nc3ccc(Cl)cc3F)C2=O)cc1 | 128%
0.14 nM | 610 nM | > 10 µM | 0.01 | 110 nM | < 1.5 ×10⁻⁶ cm/s | > 10 µM | 0.01 | > 10 µM | > 10 µM | 32.5 ×10⁻⁶ cm/s | 0.45 µM·h | > 10 µM | 0.5 nM | CS(=O)(=O)Nc1ccccc1-c1ccc(N2CCC[C@@H](NC(=O)Nc3ccc(C(F)(F)F)cc3)C2=O)cc1 | 183%
